Measured values as given in patent publication US20050215531A1, “Use of edg receptor binding agents in cancer” (priority 2002, published 2005).

Tests used:
[1] = Acute toxicity p.o. in monkeys
[2] = system: S1P- or VEGF-induced growth of vascularized tissue around the chamber; experiment: Antiangiogenic activity, subcutaneous porous chamber (S1P or VEGF) in mice; assay type: in vivo; details: once a day for 4 days; Compound A orally 0.3, 3, 30 or 50 mg/kg; Compound C enantiomers i.v. 2.5 mg/kg
Experimental: Porous chambers containing (I) sphingosine-1-phosphate (5 μM/chamber) or (ii) human VEGF (1 μg/chamber) in 0.5 ml of 0.8% w/v agar (containing heparin, 20 U/ml) are implanted subcutaneously in the flank of mice. S1P or VEGF induces the growth of vascularized tissue around the chamber. This response is dose-dependent and can be quantified by measuring the weight and blood content of the tissue. Mice are treated once a day (i) orally with Compound A (0.3, 3, 30 or 50 mg/kg) or (ii) intravenously with the R enantiomer of Compound C (2.5 mg/kg) or (iii) intravenously with the S enantiomer of Compound C (2.5 mg/kg) or (iv) orally or intravenously with vehicle (5% glucose, 10 ml/kg), starting 4-6 hours before implantation of the chambers and continuing for 4 days. The animals are sacrificed for measurement of the vascularized tissues 24 h after the last dose. The weight and blood content of the vascularized tissues around the chamber is determined. Animals treated with Compound A or with the R or S enantiomer of Compound C show reduced weight and/or blood content of the vascularized tissues compared to animals treated with vehicle alone.

ERK½ MAP kinases = experiment: Western blot, activation of ERK½ MAP kinases in HUVEC; assay type: cell-based, human; details: endothelial cells, 5 minute to 60 minute treatment
Experimental: (§1) Human umbilical vein endothelial cells (HUVEC) are cultured at 37° C. and 5% CO2 in medium M199 supplemented with 20% SCS (HyClone, Logan, Utah), 1 U/ml heparin, 50 μg/ml ECGS, 2 mM glutamine, 100 U/ml penicillin and 0.1 mg/ml streptomycin. Cells are used for experiments up to passage number 5. Short-starved HUVEC are obtained by starving with 1% SCS-containing M199 for 5 h. Recombinant human VEGF165 is obtained from PromoCell (Heidelberg, Germany). Phospho-specific ERK½, p3B kinase polyclonal antibodies, nonphospho ERK½ antibodies and LumiGLO chemiluminescent reagent are from New England BioLabs (Beverly, Mass.), polyclonal IKB antibodies from Santa Cruz Biotechnology (Santa Cruz, Calif.). Peroxidase-conjugated donkey anti-rabbit immunoglobulin G (IgG) and sheep anti-mouse IgG are purchased from Amersham LIFE SCIENCE (Amersham Place, England). lmmobilon-P transfer membranes are products of Millipore (Bedford, Mass.). S is obtained from Sigma Chemical Co.; S1P is from Biomol. Compound A-phosphate stock solution is prepared by the following protocol. Compound A-phosphate is dissolved in methanol tracing with concentrated HCl (0.5 mg Compound A-phosphate in 500 μl of methanol plus 2 μl of HCl). Solvent from the resulting solution is evaporated under vacuum and the residue obtained is redissolved (variant 1) in 0.1% of defatted BSA solution in sterile deionized water (500 μl) or (variant 2) in 0.5% Triton X-100 in deionized water. The resulting stock solutions (2.5 mM) are sonicated and stored at 4° C.
After various treatments, the cells are washed twice with cold PBS, lysed in 100 μl of Laemmli buffer, scraped and heated for 5 min at 95° C. Total cell lysates are separated by SDS-PAGE and transferred to Immobilon-P membrane. The membrane is blocked for 30 minutes with PBS containing 0.1% Tween-20 and 3% skim milk and incubated for 1 hour at RT with a primary antibody diluted in blocking buffer. The membrane obtained is washed three times for 5 minutes with PBS containing 0.1% Tween-20 and incubated with peroxidase-conjugated secondary antibody for 1 hour at RT. After a washing step, the membrane is incubated for 1 minute with ECL reagent and exposed to film as required. For reprobing with another antibody, the membrane is washed twice in PBS, stripped for 30 min at 55° C. with stripping buffer (62.5 mM Tris-HCL, pH 6.8, 2% SDS, 100 mM 2-mercaptoethanol) and washed three times for 5 minutes with PBS at RT. The membrane is stored wet wrapped in SaranWrap at 4° C. after each immunodetection.
Signal transduction via MAP idnases plays a key role in a variety of endothelial cell functions. Treatment of HUVEC with Compound A-phosphate at 0.5 μM may result in transient activation of ERK½ with a peak of phosphorylation/activation at 10 minutes and returning to baseline by 20 minutes (see e.g. FIG. 5). No activation of p38 kinase and JNK½ by Compound A-phosphate is detectable in HUVEC. […] To estimate the possible role of inflammatory/NFκB-dependent program in Compound A-phosphatestimulated bioresponses of endothelial cells, the membranes are reprobed with anti-IκB antibodies. IκB levels are not affected by Compound A-phosphate treatment.

[3] = Acute toxicity p.o. in rats
HUVEC = experiment: In vitro angiogenesis (tube formation) assay on Matrigel; assay type: cell-based, human
Experimental: as §1
Morphogenesis of endothelial cells into capillary-like structures on Growth Factor Reduced Matrigel Matrix (BD Bioscience) is performed according to the manufacture procedure. Briefly, HUVEC are trypsinized, resuspended in serum-free Ml 99 medium containing soybean trypsin inhibitor (1 mg/ml, Sigma). After centrifugation cells are resuspended in serum-free medium at a density 0.5×10^5 cells/ml, and cell suspension is seeded in 96-well cell culture plates (Costar, Corning Incorporated) precoated with 50 μl of Matrigel in the absence or presence of various stimuli: VEGF at 1.5 nM, S1P at 0.1-2 μM, S at 0.5-2 μM, Compound A at 0.5-2 μM, and Compound A-phosphate at 0.1-2 μM. Eight hours later, cells on Matrigel are fixed with 3% formaldehyde in PBS and kept at 4° C. Results are quantitated from images made with a Nikon Diaphot microscope equipped with a cooled CCD camera (Kappa GmbH, Gleichen, Germany) by direct counting of branching points on two microscopic fields from each well done in duplicates.
The effect of Compound A and Compound A-phosphate on morphogenic differentiation of endothelial cells is determined using an in vitro angiogenesis assay on Matrigel. Endothelial cell morphogenesis is a complex process that requires cell-extracellular matrix interactions, followed by matrix remodelling, stimulated migration, cell-cell interactions, and perivascular proteolysis. […] This may be interpreted as a possible involvement of EDG-1 (S1P1) receptor-mediated signaling events in Compound A-phosphate-stimulated bioresponses (see e.g. FIG. 3). […] Importantly, high concentrations of S and Compound A (2-5 μM) inhibited VEGF-triggered tube formation.

tissue factor = experiment: Clotting assay, tissue factor activity on HUVEC; assay type: cell-based, human
Experimental: as §1
Cells are seeded in 6-well plates at 80-90% confluency and grown overnight. Cells are scraped from the plates and analyzed for tissue factor activity according to the method as described in Clauss, M., J. Biol. Chem. 271,17629-17634 (1996), Mechtcheriakova, D., Blood 93,3811-3823 (1999). Briefly, after induction for 4 hours with VEGF (1.5 nM), TNF-α (100 U/ml), S (0.5-2 μM), S1P (0.5-2 μM), Compound A (0.5-2 μM), and Compound A-phosphate (0.5-2 μM), cells are washed twice and then scraped in 1 ml clotting buffer (12 mM sodium acetate, 7 mM diethylbarbitate and 130 mM sodium chloride; pH 7.4). 50 μl of resuspended cells are mixed with 50 μl of citrated plasma, and clotting times are determined after recalcfication with 50 μl of 20 mM CaCl2 solution at 37° C. TF-equivalents are determined by using a standard curve obtained from rabbit brain thromboplastin.
An important characteristic feature of both classical inflammatory stimulus TNF-α and the main angiogenic growth factor VEGF on endothellal cells is their potency to upregulate tissue factor. Compound A, Compound A-phosphate, S or S1P are tested whether they also do induce tissue factor on HUVEC. […] The data obtained together indicate that Compound A, Compound A-phosphate, S and S1P mechanistically work distinctly to anglogenic VEGF and inflammatory TNF-α.

[4] = system: human A375 melanoma cells; experiment: In vivo antitumor activity, A375 melanoma transplanted into BALB/c-nu/nu mice; details: hydrochloride salt form, 0.5 to 5 mg/kg, 2 week treatment
Text: Antitumor activity is expressed as T/C% (mean increase in tumor volumes of treated animals divided by the mean increase of tumor volumes of control animals multiplied by 100).
Aliquots of cancer cells (1×10^7), e.g. human A375 melanoma cells, are transplanted into BALB/c-nu/nu mice. When the tumors have reached ca. 10×10 mm in size, the animals are assigned randomly to four subgroups and the treatment with a compound of formula I is initiated. Animals are sacrificed after 2 week treatment, at which times tumors and tissues are harvested and prepared for morphological and molecular analysis. The size of the tumors is determined with a caliper.

[5] = system: mouse breast cancer cell line JygMC(A); experiment: In vitro antitumor activity: proliferation of synchronised mouse breast cancer cells; assay type: cell-based; details: hydrochloride salt form, Coulter counter and SRB colorimetric assay
Experimental: A mouse breast cancer cell line originally isolated from mammary carcinomas is used, e.g. JygMC(A). The cell number is adjusted to 5×10^5 for plating in fresh medium before the procedure. Cells are incubated with fresh medium containing 2.5 mM of thymidine without FCS for 12 h and then washed twice with PBS, followed by addition of fresh medium with 10% FCS and additionally incubated for another 12 h. Thereafter the cells are incubated with fresh medium containing 2.5 mM of thymidine without FCS for 12 h. To release the cells from the block, the cells are washed twice with PBS and replated in fresh medium with 10% FCS. After synchronisation the cells are incubated with or without various concentrations of a compound of formula I for 3, 6, 9, 12, 18 or 24 h. The cells are harvested after treatment with 0.2% EDTA, fixed with ice-cold 70% ethanol solution, hydrolyzed with 250 μg/ml of RNaseA (type 1-A: Sigma Chem. Co.) at 37° C. for 30 mn and stained with propidium iodide at […] for 20 mn. After the incubation period, the number of cells is determined both by counting cells in a Coulter counter and by the SRB colorimetric assay. Under these conditions an S1P agonist, e.g. Compound B in hydrochloride salt form, inhibits the proliferation of the tumor cells at concentrations ranging from 10^−12 to 10^−6 M.

SMILES | acute LD60 [1] | weight and/or blood content of the vascularized tissues compared to vehicle [2] | MAP kinase activation (ERK½ MAP kinases) | acute LD60 [3] | effect on capillary-like network formation (HUVEC; 0.5-1 μM) | effect on VEGF-mediated remodelling (HUVEC; 0.5-1 μM, with VEGF) | effect on VEGF-triggered tube formation (HUVEC; high concentrations, 2-5 μM) | effect on TNF-α-induced tissue factor (tissue factor; TNF-α 100 U/ml) | effect on VEGF-induced tissue factor (tissue factor; VEGF 1.5 nM) | tissue factor activity (tissue factor; compound alone or in combinations, 0.5-2 μM, 4 hours) | tumor growth vs saline control [4] | concentrations at which the proliferation of the tumor cells is inhibited [5]
CCCCCCCCc1ccc(CCC(N)(CO)CO)cc1.Cl [Compound A, 2-amino-2-[2-(4-octylphenyl)ethyl]propane-1 ,3-diol] | > 10 mg/kg | reduced | Neither Compound A nor S are able to induce MAP kinase activation | > 10 mg/kg | weak, in comparison to Compound A-phosphate, but consistent enhancing effect | does not attenuate | inhibited | not TNF-α-induced | slightly enhance | none of these compounds alone or in combinations may elevate tissue factor activity |  | 
NC(CO)(CO)CCc1ccc(C(=O)CCCCc2ccccc2)cc1 [Compound B, 2-amino-2-{2-[4-(1-oxo-5-phenylpentyl)phenyl]ethyl}propane-1,3-diol] |  |  |  |  |  |  |  |  |  |  | slows tumor growth | 10^−12 to 10^−6 M
CCCCCCCOc1ccc(CCC(C)(N)CO)cc1 (stereo not drawn) [R enantiomer of Compound C, 2-amino-4-(4heptyloxyphenyl)-2-methyl-butanol] |  | reduced |  |  |  |  |  |  |  |  |  | 
